Results reported in the kinase profiling compilation of Christmann-Franck et al. (2016).

How the values were obtained:
Assay in all cases: Caliper, Mobility shift assay off-chip
CDC42BPB (human) = CDC42BPB (human) (UniProt Q9Y5S2)
NEK2 (human) = NEK2 (human) (UniProt P51955)
PDK4 (human) = PDK4 (human) (UniProt Q16654)
ALK NPM1 (human) = ALK NPM1 (human) (UniProt P06748+Q9UM73)
PTK2 (human) = PTK2 (human) (UniProt Q05397)
SGK1 (human) = SGK1 (human) (UniProt O00141)
SPHK1 (human) = SPHK1 (human) (UniProt Q9NYA1)
STK10 (human) = STK10 (human) (UniProt O94804)
TAB1 (human) = TAB1 (human) (UniProt Q15750)
TBK1 (human) = TBK1 (human) (UniProt Q9UHD2)
PHKG2 (human) = PHKG2 (human) (UniProt P15735)
FES (human) = FES (human) (UniProt P07332)
PHKG1 (human) = PHKG1 (human) (UniProt Q16816)
SRMS (human) = SRMS (human) (UniProt Q9H3Y6)
STK38L (human) = STK38L (human) (UniProt Q9Y2H1)
MINK1 (human) = MINK1 (human) (UniProt Q8N4C8)
EPHA3 (human) = EPHA3 (human) (UniProt P29320)
PRKCZ (human) = PRKCZ (human) (UniProt Q05513)
CDK7 (human) = CDK7 (human) (UniProt P50613)
FRK (human) = FRK (human) (UniProt P42685)
EPHA2 (human) = EPHA2 (human) (UniProt P29317)
MAP4K2 (human) = MAP4K2 (human) (UniProt Q12851)
ROCK1 (human) = ROCK1 (human) (UniProt Q13464)
BTK (human) = BTK (human) (UniProt Q06187)
TEK (human) = TEK (human) (UniProt Q02763)
NIM1 (human) = NIM1 (human) (UniProt Q8IY84)
PRKACA (human) = PRKACA (human) (UniProt P17612)
NEK6 (human) = NEK6 (human) (UniProt Q9HC98)
CLK2 (human) = CLK2 (human) (UniProt P49760)
PIM1 (human) = PIM1 (human) (UniProt P11309)
AKT1 (human) = AKT1 (human) (UniProt P31749)
RPS6KA6 KD1 KD2 (human) = RPS6KA6 KD1 KD2 (human) (UniProt Q9UK32)
RPS6KA5 KD1 KD2 (human) = RPS6KA5 KD1 KD2 (human) (UniProt O75582)
PIK3CA PIK3R1 (human) = PIK3CA PIK3R1 (human) (UniProt P27986+P42336)

Chain of EPHA2 (human) (P29317 whole entry, looked up): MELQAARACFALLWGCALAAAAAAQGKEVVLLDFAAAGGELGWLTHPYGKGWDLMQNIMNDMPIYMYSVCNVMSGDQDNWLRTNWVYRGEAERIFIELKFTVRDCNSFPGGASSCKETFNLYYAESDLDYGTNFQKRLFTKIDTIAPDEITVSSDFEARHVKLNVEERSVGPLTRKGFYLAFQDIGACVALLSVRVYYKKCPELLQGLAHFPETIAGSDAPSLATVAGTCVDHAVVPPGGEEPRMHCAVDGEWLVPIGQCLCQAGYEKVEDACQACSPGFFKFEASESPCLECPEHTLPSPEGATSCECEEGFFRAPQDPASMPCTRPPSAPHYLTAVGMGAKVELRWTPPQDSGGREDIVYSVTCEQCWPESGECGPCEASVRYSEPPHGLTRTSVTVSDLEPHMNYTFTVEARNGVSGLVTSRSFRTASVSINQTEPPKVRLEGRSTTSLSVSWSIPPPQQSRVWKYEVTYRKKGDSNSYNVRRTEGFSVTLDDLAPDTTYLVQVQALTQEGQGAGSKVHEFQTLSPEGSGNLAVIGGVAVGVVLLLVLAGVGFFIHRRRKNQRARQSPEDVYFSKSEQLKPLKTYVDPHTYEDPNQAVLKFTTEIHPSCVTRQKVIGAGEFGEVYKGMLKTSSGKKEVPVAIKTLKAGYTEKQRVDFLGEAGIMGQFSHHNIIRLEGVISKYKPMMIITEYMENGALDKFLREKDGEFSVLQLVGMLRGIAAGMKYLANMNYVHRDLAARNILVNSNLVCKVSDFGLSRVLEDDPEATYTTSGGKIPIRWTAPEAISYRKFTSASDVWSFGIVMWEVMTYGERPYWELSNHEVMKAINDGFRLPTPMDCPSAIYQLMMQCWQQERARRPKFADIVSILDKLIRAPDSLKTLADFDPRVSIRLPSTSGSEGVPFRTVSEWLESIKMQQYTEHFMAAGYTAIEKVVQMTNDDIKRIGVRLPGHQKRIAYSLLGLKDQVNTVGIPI
Chain of NEK6 (human) (Q9HC98 whole entry, looked up): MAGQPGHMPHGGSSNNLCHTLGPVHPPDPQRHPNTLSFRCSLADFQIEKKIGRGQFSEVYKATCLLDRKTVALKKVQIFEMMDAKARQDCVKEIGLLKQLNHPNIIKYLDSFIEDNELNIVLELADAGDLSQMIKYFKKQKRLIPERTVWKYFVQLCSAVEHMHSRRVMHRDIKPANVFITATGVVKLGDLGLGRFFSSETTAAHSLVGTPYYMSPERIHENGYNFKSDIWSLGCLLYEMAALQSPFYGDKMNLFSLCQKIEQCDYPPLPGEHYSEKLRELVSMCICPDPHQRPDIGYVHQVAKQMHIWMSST
Chain of TBK1 (human) (Q9UHD2 whole entry, looked up): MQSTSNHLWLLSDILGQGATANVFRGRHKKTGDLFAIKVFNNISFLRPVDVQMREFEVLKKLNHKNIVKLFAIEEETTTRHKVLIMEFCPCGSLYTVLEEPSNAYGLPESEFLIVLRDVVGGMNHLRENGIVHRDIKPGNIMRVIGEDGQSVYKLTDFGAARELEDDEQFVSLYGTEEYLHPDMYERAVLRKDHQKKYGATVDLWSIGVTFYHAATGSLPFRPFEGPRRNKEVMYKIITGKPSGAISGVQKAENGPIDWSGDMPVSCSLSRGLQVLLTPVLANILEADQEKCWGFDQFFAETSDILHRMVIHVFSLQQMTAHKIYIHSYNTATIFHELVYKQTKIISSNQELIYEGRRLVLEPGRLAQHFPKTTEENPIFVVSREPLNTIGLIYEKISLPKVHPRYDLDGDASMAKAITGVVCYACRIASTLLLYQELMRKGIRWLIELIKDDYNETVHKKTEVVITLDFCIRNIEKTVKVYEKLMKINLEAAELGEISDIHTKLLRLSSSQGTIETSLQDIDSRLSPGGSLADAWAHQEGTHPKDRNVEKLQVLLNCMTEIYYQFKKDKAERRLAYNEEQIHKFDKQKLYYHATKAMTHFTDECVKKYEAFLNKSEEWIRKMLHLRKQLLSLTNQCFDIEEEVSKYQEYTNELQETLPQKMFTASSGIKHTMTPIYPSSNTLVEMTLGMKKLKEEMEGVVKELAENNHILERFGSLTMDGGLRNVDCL
Chain of PDK4 (human) (Q16654 whole entry, looked up): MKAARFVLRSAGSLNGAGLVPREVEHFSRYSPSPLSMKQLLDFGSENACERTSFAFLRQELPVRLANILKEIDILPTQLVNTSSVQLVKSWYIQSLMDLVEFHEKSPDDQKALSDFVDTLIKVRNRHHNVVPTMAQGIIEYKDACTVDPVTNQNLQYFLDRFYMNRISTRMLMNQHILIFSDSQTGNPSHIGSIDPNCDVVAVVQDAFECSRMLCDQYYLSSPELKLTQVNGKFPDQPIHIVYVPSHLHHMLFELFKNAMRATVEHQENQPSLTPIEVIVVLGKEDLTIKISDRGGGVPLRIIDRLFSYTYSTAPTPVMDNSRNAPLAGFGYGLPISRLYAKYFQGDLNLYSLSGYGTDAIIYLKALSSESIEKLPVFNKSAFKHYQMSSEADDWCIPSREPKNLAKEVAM
Chain of FES (human) (P07332 whole entry, looked up): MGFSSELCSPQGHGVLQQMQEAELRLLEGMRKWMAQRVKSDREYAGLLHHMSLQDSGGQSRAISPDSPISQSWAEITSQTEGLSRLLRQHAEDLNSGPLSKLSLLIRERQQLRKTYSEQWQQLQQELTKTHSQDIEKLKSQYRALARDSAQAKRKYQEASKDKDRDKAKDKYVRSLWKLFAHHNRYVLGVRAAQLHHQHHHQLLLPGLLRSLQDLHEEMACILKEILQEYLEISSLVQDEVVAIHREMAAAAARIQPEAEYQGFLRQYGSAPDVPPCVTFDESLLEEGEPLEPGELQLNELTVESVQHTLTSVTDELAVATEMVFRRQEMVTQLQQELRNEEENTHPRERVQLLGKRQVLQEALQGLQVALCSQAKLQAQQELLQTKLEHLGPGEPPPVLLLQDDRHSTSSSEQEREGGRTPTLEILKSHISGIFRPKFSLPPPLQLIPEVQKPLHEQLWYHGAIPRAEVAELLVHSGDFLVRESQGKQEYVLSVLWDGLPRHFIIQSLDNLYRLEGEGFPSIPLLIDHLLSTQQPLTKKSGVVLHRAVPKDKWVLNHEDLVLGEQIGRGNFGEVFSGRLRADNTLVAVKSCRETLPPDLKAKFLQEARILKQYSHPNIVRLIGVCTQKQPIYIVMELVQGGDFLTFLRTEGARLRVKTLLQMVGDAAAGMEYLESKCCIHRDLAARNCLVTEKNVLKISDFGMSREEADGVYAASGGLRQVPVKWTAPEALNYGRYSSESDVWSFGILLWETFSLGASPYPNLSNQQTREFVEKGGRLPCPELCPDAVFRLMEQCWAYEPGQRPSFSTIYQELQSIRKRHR
Chain of CDK7 (human) (P50613 whole entry, looked up): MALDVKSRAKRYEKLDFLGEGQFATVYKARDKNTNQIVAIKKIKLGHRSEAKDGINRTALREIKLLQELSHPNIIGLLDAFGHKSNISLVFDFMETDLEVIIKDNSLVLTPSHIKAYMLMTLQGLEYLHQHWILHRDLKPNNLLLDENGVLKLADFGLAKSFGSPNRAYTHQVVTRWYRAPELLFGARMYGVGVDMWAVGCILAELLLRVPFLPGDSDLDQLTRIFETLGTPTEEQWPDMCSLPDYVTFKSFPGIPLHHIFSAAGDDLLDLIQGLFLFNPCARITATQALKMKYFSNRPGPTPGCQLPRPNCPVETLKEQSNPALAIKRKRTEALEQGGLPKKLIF
Chain of NEK2 (human) (P51955 whole entry, looked up): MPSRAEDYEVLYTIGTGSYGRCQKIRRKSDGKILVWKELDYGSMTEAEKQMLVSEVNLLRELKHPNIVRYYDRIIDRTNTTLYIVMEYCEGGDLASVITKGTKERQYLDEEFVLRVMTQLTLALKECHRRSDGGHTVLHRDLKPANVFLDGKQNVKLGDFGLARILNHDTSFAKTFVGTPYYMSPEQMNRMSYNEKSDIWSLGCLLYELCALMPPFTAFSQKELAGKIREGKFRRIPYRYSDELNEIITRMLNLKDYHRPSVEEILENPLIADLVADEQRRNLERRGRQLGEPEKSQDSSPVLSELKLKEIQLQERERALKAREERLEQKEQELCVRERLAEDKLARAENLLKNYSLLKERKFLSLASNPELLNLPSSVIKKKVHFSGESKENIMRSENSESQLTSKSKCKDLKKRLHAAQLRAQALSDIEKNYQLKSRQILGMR
Chain of PRKCZ (human) (Q05513 whole entry, looked up): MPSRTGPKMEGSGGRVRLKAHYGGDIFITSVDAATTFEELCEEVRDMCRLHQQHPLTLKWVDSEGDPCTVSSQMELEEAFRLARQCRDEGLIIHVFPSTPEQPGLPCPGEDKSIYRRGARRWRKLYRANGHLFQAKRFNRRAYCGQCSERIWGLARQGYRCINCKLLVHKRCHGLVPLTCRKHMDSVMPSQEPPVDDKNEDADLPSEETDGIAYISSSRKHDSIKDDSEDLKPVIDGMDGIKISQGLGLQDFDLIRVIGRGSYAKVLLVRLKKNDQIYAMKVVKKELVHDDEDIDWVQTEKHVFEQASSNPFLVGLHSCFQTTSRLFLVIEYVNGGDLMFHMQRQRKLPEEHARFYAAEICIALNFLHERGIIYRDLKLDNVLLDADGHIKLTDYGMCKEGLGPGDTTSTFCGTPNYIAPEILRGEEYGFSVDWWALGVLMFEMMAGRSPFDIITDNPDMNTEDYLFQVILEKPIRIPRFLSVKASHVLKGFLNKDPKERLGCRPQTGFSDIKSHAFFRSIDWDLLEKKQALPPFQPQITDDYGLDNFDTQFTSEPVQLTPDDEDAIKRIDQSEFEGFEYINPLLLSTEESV
Chain of SPHK1 (human) (Q9NYA1 whole entry, looked up): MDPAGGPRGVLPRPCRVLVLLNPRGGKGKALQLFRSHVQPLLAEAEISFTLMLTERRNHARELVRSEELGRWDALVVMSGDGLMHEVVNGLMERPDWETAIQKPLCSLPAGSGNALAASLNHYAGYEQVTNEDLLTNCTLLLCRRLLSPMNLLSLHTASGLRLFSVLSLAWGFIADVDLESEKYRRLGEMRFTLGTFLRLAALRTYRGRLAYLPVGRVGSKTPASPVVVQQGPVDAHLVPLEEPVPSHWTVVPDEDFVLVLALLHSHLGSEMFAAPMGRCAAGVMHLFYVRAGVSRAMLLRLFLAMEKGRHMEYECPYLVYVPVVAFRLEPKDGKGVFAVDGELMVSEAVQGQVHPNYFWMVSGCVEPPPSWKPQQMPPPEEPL

Compound: COc1cc2c(Oc3ccc4[nH]c(C)cc4c3F)ncnc2cc1OCCCN1CCCC1
- inhibition (CDC42BPB (human); compound 0.02 µM): -8.9%
- inhibition (CDC42BPB (human); compound 0.2 µM): 4.2%
- inhibition (NEK2 (human); compound 0.02 µM): 6.3%
- inhibition (NEK2 (human); compound 0.2 µM): 5.3%
- inhibition (PDK4 (human); compound 0.02 µM): 2.7%
- inhibition (PDK4 (human); compound 0.2 µM): 1.6%
- inhibition (ALK NPM1 (human); compound 0.02 µM): 3.6%
- inhibition (ALK NPM1 (human); compound 0.2 µM): 5.1%
- inhibition (PTK2 (human); compound 0.02 µM): -5.3%
- inhibition (PTK2 (human); compound 0.2 µM): -4.2%
- inhibition (SGK1 (human); compound 0.02 µM): 5.2%
- inhibition (SGK1 (human); compound 0.2 µM): 0.4%
- inhibition (SPHK1 (human); compound 0.02 µM): -5.6%
- inhibition (SPHK1 (human); compound 0.2 µM): -7.8%
- inhibition (STK10 (human); compound 0.02 µM): 45.1%
- inhibition (STK10 (human); compound 0.2 µM): 91.7%
- inhibition (TAB1 (human); compound 0.02 µM): 5.3%
- inhibition (TAB1 (human); compound 0.2 µM): 8.9%
- inhibition (TBK1 (human); compound 0.02 µM): -1.8%
- inhibition (TBK1 (human); compound 0.2 µM): -1.6%
- inhibition (PHKG2 (human); compound 0.02 µM): -2.9%
- inhibition (PHKG2 (human); compound 0.2 µM): -3.3%
- inhibition (FES (human); compound 0.02 µM): 6.9%
- inhibition (FES (human); compound 0.2 µM): 7.8%
- inhibition (PHKG1 (human); compound 0.02 µM): -5.1%
- inhibition (PHKG1 (human); compound 0.2 µM): -3.5%
- inhibition (SRMS (human); compound 0.02 µM): -0.7%
- inhibition (SRMS (human); compound 0.2 µM): -1.7%
- inhibition (STK38L (human); compound 0.02 µM): 8.9%
- inhibition (STK38L (human); compound 0.2 µM): -0.2%
- inhibition (MINK1 (human); compound 0.02 µM): 3.5%
- inhibition (MINK1 (human); compound 0.2 µM): 2.9%
- inhibition (EPHA3 (human); compound 0.02 µM): -6.9%
- inhibition (EPHA3 (human); compound 0.2 µM): -1.2%
- inhibition (PRKCZ (human); compound 0.02 µM): 10.1%
- inhibition (PRKCZ (human); compound 0.2 µM): 1.5%
- inhibition (CDK7 (human); compound 0.02 µM): -5.4%
- inhibition (CDK7 (human); compound 0.2 µM): -4.5%
- inhibition (FRK (human); compound 0.02 µM): 12%
- inhibition (FRK (human); compound 0.2 µM): 27.4%
- inhibition (EPHA2 (human); compound 0.02 µM): -5.4%
- inhibition (EPHA2 (human); compound 0.2 µM): -3.5%
- inhibition (MAP4K2 (human); compound 0.02 µM): 2.6%
- inhibition (MAP4K2 (human); compound 0.2 µM): 18.4%
- inhibition (ROCK1 (human); compound 0.02 µM): -1.3%
- inhibition (ROCK1 (human); compound 0.2 µM): -1.3%
- inhibition (BTK (human); compound 0.02 µM): 3.4%
- inhibition (BTK (human); compound 0.2 µM): 10.1%
- inhibition (TEK (human); compound 0.02 µM): 5.8%
- inhibition (TEK (human); compound 0.2 µM): 48.5%
- inhibition (NIM1 (human); compound 0.02 µM): 15.8%
- inhibition (NIM1 (human); compound 0.2 µM): -9.8%
- inhibition (PRKACA (human); compound 0.02 µM): -2.9%
- inhibition (PRKACA (human); compound 0.2 µM): -4.8%
- inhibition (NEK6 (human); compound 0.02 µM): -4.2%
- inhibition (NEK6 (human); compound 0.2 µM): -3.5%
- inhibition (CLK2 (human); compound 0.02 µM): 0.3%
- inhibition (CLK2 (human); compound 0.2 µM): 1.1%
- inhibition (PIM1 (human); compound 0.02 µM): -2.8%
- inhibition (PIM1 (human); compound 0.2 µM): -8.3%
- inhibition (AKT1 (human); compound 0.02 µM): -0.8%
- inhibition (AKT1 (human); compound 0.2 µM): -3.1%
- inhibition (RPS6KA6 KD1 KD2 (human); compound 0.02 µM): 15%
- inhibition (RPS6KA6 KD1 KD2 (human); compound 0.2 µM): -2.3%
- inhibition (RPS6KA5 KD1 KD2 (human); compound 0.02 µM): -4.9%
- inhibition (RPS6KA5 KD1 KD2 (human); compound 0.2 µM): -7.3%
- inhibition (PIK3CA PIK3R1 (human); compound 0.02 µM): 26.6%
- inhibition (PIK3CA PIK3R1 (human); compound 0.2 µM): 34.9%

Compound: CNC(=O)c1ccccc1Sc1ccc2c(/C=C/c3ccccn3)n[nH]c2c1
- inhibition (CDC42BPB (human); compound 0.001 µM): -8.6%
- inhibition (CDC42BPB (human); compound 0.02 µM): 2.9%
- inhibition (NEK2 (human); compound 0.001 µM): 5.7%
- inhibition (NEK2 (human); compound 0.02 µM): 4.7%
- inhibition (PDK4 (human); compound 0.001 µM): 0.1%
- inhibition (PDK4 (human); compound 0.02 µM): -0.5%
- inhibition (ALK NPM1 (human); compound 0.001 µM): 1.1%
- inhibition (ALK NPM1 (human); compound 0.02 µM): -0.3%
- inhibition (PTK2 (human); compound 0.001 µM): -7.1%
- inhibition (PTK2 (human); compound 0.02 µM): -5.9%
- inhibition (SGK1 (human); compound 0.001 µM): 11.3%
- inhibition (SGK1 (human); compound 0.02 µM): -1.8%
- inhibition (SPHK1 (human); compound 0.001 µM): -4.8%
- inhibition (SPHK1 (human); compound 0.02 µM): -4.1%
- inhibition (STK10 (human); compound 0.001 µM): 6.2%
- inhibition (STK10 (human); compound 0.02 µM): 21.3%
- inhibition (TAB1 (human); compound 0.001 µM): 1.4%
- inhibition (TAB1 (human); compound 0.02 µM): 1.1%
- inhibition (TBK1 (human); compound 0.001 µM): -3.3%
- inhibition (TBK1 (human); compound 0.02 µM): -2%
- inhibition (PHKG2 (human); compound 0.001 µM): -6.2%
- inhibition (PHKG2 (human); compound 0.02 µM): -3.3%
- inhibition (FES (human); compound 0.001 µM): 2.9%
- inhibition (FES (human); compound 0.02 µM): 1.5%
- inhibition (PHKG1 (human); compound 0.001 µM): -7%
- inhibition (PHKG1 (human); compound 0.02 µM): -4.4%
- inhibition (SRMS (human); compound 0.001 µM): -4.5%
- inhibition (SRMS (human); compound 0.02 µM): -4.9%
- inhibition (STK38L (human); compound 0.001 µM): 8.1%
- inhibition (STK38L (human); compound 0.02 µM): -0.1%
- inhibition (MINK1 (human); compound 0.001 µM): 0.7%
- inhibition (MINK1 (human); compound 0.02 µM): 0.1%
- inhibition (EPHA3 (human); compound 0.001 µM): -7.7%
- inhibition (EPHA3 (human); compound 0.02 µM): -4.2%
- inhibition (PRKCZ (human); compound 0.001 µM): 12%
- inhibition (PRKCZ (human); compound 0.02 µM): -4.6%
- inhibition (CDK7 (human); compound 0.001 µM): -7.5%
- inhibition (CDK7 (human); compound 0.02 µM): -3.4%
- inhibition (FRK (human); compound 0.001 µM): 6.1%
- inhibition (FRK (human); compound 0.02 µM): 4.2%
- inhibition (EPHA2 (human); compound 0.001 µM): -8.3%
- inhibition (EPHA2 (human); compound 0.02 µM): -6.2%
- inhibition (MAP4K2 (human); compound 0.001 µM): -2.6%
- inhibition (MAP4K2 (human); compound 0.02 µM): 4.8%
- inhibition (ROCK1 (human); compound 0.001 µM): 5.8%
- inhibition (ROCK1 (human); compound 0.02 µM): 0.7%
- inhibition (TEK (human); compound 0.001 µM): -9%
- inhibition (TEK (human); compound 0.02 µM): -4.9%
- inhibition (NIM1 (human); compound 0.001 µM): 13.8%
- inhibition (NIM1 (human); compound 0.02 µM): -10.4%
- inhibition (PRKACA (human); compound 0.001 µM): -7.9%
- inhibition (PRKACA (human); compound 0.02 µM): -10.1%
- inhibition (NEK6 (human); compound 0.001 µM): -7.6%
- inhibition (NEK6 (human); compound 0.02 µM): -5.8%
- inhibition (CLK2 (human); compound 0.001 µM): -3.8%
- inhibition (CLK2 (human); compound 0.02 µM): 5.8%
- inhibition (PIM1 (human); compound 0.001 µM): -5.1%
- inhibition (PIM1 (human); compound 0.02 µM): -3.4%
- inhibition (AKT1 (human); compound 0.001 µM): -4.4%
- inhibition (AKT1 (human); compound 0.02 µM): -4.8%
- inhibition (RPS6KA6 KD1 KD2 (human); compound 0.001 µM): -7%
- inhibition (RPS6KA6 KD1 KD2 (human); compound 0.02 µM): -0.1%
- inhibition (RPS6KA5 KD1 KD2 (human); compound 0.001 µM): -6.2%
- inhibition (RPS6KA5 KD1 KD2 (human); compound 0.02 µM): -7.1%
- inhibition (PIK3CA PIK3R1 (human); compound 0.001 µM): 40.8%
- inhibition (PIK3CA PIK3R1 (human); compound 0.02 µM): 40.7%
